Active and inactive are the calls of the source. How the calls were made is not given here.

This series concerns CCRIS mutagenicity, Ames/micronucleus/aberration tests. Description: CCRIS mutagenicity studies.
Where [1] appears, read: Test System: AMES SALMONELLA TYPHIMURIUM, Strain/Indicator: TA98, Metabolic Activation: NONE, Method: PREINCUBATION
[2] abbreviates: Test System: AMES SALMONELLA TYPHIMURIUM, Strain/Indicator: TA100, Metabolic Activation: RAT, LIVER, S-9, AROCLOR 1254, Method: STANDARD PLATE.
Where [3] appears, read: Test System: AMES SALMONELLA TYPHIMURIUM, Strain/Indicator: TA98, Metabolic Activation: NONE, Method: STANDARD PLATE.

Regarding `CC(Br)C(=O)O` (stereo not drawn), the mutagenic call is “active; positive (structural changes)” (End Point: IN VITRO CHROMOSOMAL ABERRATIONS, Test System: CHL CELLS, Metabolic Activation: RAT, LIVER, S-9, SODIUM PHENOBARBITAL AND 5,6-BENZOFLAVONE); “inactive; negative” under setting [1]; “inactive; negative” (Test System: AMES SALMONELLA TYPHIMURIUM, Strain/Indicator: TA98, Metabolic Activation: RAT LIVER S-9, PHENOBARBITAL AND BETA-NAPHTHOFLAVONE, Method: PREINCUBATION); “inactive; negative” (Test System: AMES SALMONELLA TYPHIMURIUM, Strain/Indicator: TA100, Metabolic Activation: NONE, Method: PREINCUBATION); “inactive; negative” (Test System: AMES SALMONELLA TYPHIMURIUM, Strain/Indicator: TA100, Metabolic Activation: RAT LIVER S-9, PHENOBARBITAL AND BETA-NAPHTHOFLAVONE, Method: PREINCUBATION); “inactive; negative” (Test System: AMES SALMONELLA TYPHIMURIUM, Strain/Indicator: TA1535, Metabolic Activation: NONE, Method: PREINCUBATION). Further, the mutagenic call is “active; positive” (Test System: AMES SALMONELLA TYPHIMURIUM, Strain/Indicator: TA1535, Metabolic Activation: RAT LIVER S-9, PHENOBARBITAL AND BETA-NAPHTHOFLAVONE, Method: PREINCUBATION); “inactive; negative” (Test System: AMES SALMONELLA TYPHIMURIUM, Strain/Indicator: TA1537, Metabolic Activation: NONE, Method: PREINCUBATION); “inactive; negative” (Test System: AMES SALMONELLA TYPHIMURIUM, Strain/Indicator: TA1537, Metabolic Activation: RAT LIVER S-9, PHENOBARBITAL AND BETA-NAPHTHOFLAVONE, Method: PREINCUBATION); “inactive; negative” (Test System: AMES SALMONELLA TYPHIMURIUM, Strain/Indicator: TA1538, Metabolic Activation: NONE, Method: PREINCUBATION); “inactive; negative” (Test System: AMES SALMONELLA TYPHIMURIUM, Strain/Indicator: TA1538, Metabolic Activation: RAT LIVER S-9, PHENOBARBITAL AND BETA-NAPHTHOFLAVONE, Method: PREINCUBATION); “inactive; negative” (Test System: E.COLI, Strain/Indicator: WP2UVRA, Metabolic Activation: NONE, Method: PREINCUBATION). Further, the mutagenic call (Test System: E.COLI, Strain/Indicator: WP2UVRA, Metabolic Activation: RAT LIVER S-9, PHENOBARBITAL AND BETA-NAPHTHOFLAVONE, Method: PREINCUBATION) is “inactive; negative”.
In the case of `O[C@H]1C=Cc2c(ccc3cc4c(ccc5ccccc54)cc23)[C@@H]1O`, the mutagenic call under setting [2] was “active; positive”.
`ClC1C=Cc2cc3c4c(ccc5cccc(c54)C=3)c2=C1` (stereo not drawn): the mutagenic call under setting [1] is “active; positive”.
As for `CNP(=O)(NC)NC`, the mutagenic call is “inactive; negative” (Test System: AMES SALMONELLA TYPHIMURIUM, Strain/Indicator: TA100, Metabolic Activation: NONE, Method: SUSPENSION) and “inactive; negative” (Test System: AMES SALMONELLA TYPHIMURIUM, Strain/Indicator: TA100, Metabolic Activation: RAT, LIVER, S-9, AROCLOR 1254, Method: SUSPENSION).
Regarding `O=[N+]([O-])c1cc2c3c(ccc4cc([N+](=O)[O-])cc(c43)CC2)c1`, the mutagenic call by setting is: (Test System: AMES SALMONELLA TYPHIMURIUM, Strain/Indicator: TA98(1,8-DNP6), Metabolic Activation: NONE, Method: STANDARD PLATE) “active; positive”; (Test System: AMES SALMONELLA TYPHIMURIUM, Strain/Indicator: TA98(NR), Metabolic Activation: NONE, Method: STANDARD PLATE) “active; positive”; under setting [3], “active; positive”.
Take `C/C=C\c1cc(OC)c(OC)cc1OC`: the mutagenic call by setting is: (Test System: AMES SALMONELLA TYPHIMURIUM, Strain/Indicator: TA97, Metabolic Activation: NONE, Method: STANDARD PLATE) “inactive; negative”; (Test System: AMES SALMONELLA TYPHIMURIUM, Strain/Indicator: TA97, Metabolic Activation: RAT, LIVER, S-9, AROCLOR 1254, Method: STANDARD PLATE) “inactive; negative”; under setting [3], “inactive; negative”; (Test System: AMES SALMONELLA TYPHIMURIUM, Strain/Indicator: TA98, Metabolic Activation: RAT, LIVER, S-9, AROCLOR 1254, Method: STANDARD PLATE) “inactive; negative”; (Test System: AMES SALMONELLA TYPHIMURIUM, Strain/Indicator: TA100, Metabolic Activation: NONE, Method: STANDARD PLATE) “inactive; negative”; under setting [2], “inactive; negative”. In addition, the mutagenic call by setting is: (Test System: AMES SALMONELLA TYPHIMURIUM, Strain/Indicator: TA1535, Metabolic Activation: NONE, Method: STANDARD PLATE) “active; positive”; (Test System: AMES SALMONELLA TYPHIMURIUM, Strain/Indicator: TA1535, Metabolic Activation: RAT, LIVER, S-9, AROCLOR 1254, Method: STANDARD PLATE) “inactive; negative”; (Test System: AMES SALMONELLA TYPHIMURIUM, Strain/Indicator: TA1537, Metabolic Activation: NONE, Method: STANDARD PLATE) “inactive; negative”; (Test System: AMES SALMONELLA TYPHIMURIUM, Strain/Indicator: TA1537, Metabolic Activation: RAT, LIVER, S-9, AROCLOR 1254, Method: STANDARD PLATE) “inactive; negative”; (Test System: AMES SALMONELLA TYPHIMURIUM, Strain/Indicator: TA1538, Metabolic Activation: NONE, Method: STANDARD PLATE) “inactive; negative”; (Test System: AMES SALMONELLA TYPHIMURIUM, Strain/Indicator: TA1538, Metabolic Activation: RAT, LIVER, S-9, AROCLOR 1254, Method: STANDARD PLATE) “inactive; negative”. In addition, the mutagenic call (Test System: UDS RAT HEPATOCYTES, Strain/Indicator: THY INCORP, Metabolic Activation: NONE, Method: LIQUID SCINTILLATION COUNTING) was “active; positive”.

The values above are taken from PubChem BioAssay AID1259407 (Chemical Carcinogenesis Research Information System (CCRIS), 2018).
